Reference: ChEMBL document CHEMBL3991601, “The target landscape of clinical kinase drugs” (Science, 2017)
Active and inactive are the calls of the source. Rule as the data show it, for most assays here: actives have a measured Kd and inactives only a lower limit.

How the values were obtained:
[1] = target: High affinity nerve growth factor receptor (Homo sapiens, UniProt P04629)
[2] = target: Serine/threonine-protein kinase/endoribonuclease IRE2 (Homo sapiens, UniProt Q76MJ5)
[3] = target: Protein kinase C theta type (Homo sapiens, UniProt Q04759)
Sequence of Protein kinase C theta type (Q04759 whole entry): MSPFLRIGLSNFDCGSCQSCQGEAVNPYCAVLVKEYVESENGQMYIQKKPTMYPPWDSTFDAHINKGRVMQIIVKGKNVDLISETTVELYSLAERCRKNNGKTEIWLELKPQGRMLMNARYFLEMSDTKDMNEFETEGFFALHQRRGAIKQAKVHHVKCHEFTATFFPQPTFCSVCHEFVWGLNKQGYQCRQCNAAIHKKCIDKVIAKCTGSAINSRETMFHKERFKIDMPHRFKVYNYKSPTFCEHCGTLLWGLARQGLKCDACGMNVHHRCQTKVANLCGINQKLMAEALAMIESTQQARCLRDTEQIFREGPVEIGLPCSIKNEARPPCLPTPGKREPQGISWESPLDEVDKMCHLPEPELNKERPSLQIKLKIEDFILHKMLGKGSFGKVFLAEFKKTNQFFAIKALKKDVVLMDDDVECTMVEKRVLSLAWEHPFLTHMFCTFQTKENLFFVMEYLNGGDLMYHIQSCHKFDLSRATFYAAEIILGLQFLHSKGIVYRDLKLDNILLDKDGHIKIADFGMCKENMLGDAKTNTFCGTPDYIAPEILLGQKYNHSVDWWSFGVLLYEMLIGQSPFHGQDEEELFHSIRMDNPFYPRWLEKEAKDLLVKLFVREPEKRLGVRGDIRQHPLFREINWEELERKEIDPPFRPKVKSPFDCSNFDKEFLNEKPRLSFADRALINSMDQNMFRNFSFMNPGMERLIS

[4] = target: Protein kinase C beta type (Homo sapiens, UniProt P05771)
Sequence of Protein kinase C beta type (P05771 whole entry): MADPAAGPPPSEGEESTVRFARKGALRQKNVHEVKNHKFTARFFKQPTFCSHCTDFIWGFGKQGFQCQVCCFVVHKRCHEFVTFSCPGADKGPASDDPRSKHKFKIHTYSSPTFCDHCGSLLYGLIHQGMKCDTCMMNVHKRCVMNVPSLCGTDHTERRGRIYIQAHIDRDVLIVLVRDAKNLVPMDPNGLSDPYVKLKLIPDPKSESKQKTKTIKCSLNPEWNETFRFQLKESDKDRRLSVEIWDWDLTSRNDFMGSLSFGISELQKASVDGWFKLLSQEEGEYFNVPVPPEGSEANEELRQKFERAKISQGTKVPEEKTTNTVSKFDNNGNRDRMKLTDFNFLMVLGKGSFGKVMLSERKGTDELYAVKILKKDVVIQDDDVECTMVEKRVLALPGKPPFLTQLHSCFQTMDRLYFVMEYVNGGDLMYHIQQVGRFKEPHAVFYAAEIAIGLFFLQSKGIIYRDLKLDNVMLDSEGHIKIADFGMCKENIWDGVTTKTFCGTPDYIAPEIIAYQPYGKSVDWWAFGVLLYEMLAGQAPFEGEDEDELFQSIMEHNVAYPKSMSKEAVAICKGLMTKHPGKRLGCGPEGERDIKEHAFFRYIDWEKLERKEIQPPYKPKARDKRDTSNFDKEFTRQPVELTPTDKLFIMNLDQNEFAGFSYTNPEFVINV

[5] = target: T1, Tyrosine--tRNA ligase, cytoplasmic (Homo sapiens, UniProt P54577)
T1 sequence (P54577 whole entry): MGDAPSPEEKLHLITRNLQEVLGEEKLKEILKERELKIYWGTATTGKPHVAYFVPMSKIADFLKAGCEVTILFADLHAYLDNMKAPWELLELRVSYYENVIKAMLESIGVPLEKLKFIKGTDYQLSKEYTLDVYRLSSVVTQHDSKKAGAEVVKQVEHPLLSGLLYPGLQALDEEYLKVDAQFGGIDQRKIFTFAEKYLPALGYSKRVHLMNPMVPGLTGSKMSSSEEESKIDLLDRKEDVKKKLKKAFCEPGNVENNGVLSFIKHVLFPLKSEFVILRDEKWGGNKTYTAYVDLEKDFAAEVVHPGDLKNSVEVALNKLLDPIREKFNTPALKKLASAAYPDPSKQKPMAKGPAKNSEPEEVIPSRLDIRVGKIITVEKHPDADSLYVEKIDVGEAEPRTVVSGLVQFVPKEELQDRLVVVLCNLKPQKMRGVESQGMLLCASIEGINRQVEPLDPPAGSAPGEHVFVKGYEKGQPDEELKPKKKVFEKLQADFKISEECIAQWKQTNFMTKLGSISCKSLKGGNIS

[6] = target: Tyrosine-protein kinase Yes (Homo sapiens, UniProt P07947)
Sequence of Tyrosine-protein kinase Yes (P07947 whole entry): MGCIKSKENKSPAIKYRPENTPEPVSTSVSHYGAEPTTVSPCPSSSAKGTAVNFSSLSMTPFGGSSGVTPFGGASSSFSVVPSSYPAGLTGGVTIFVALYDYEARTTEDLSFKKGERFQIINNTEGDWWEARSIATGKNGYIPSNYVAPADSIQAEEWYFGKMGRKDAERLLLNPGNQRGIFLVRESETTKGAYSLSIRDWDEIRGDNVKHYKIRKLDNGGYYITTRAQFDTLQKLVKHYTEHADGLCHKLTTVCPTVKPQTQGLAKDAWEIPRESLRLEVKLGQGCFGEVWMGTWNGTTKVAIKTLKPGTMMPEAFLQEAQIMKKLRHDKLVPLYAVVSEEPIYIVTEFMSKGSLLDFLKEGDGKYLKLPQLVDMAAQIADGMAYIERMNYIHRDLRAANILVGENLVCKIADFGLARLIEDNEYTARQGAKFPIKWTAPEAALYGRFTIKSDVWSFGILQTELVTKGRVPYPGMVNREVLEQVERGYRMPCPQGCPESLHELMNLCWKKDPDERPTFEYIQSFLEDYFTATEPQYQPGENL

[7] = target: T2, Serine/threonine-protein kinase TBK1 (Homo sapiens, UniProt Q9UHD2)
T2 sequence (Q9UHD2 whole entry): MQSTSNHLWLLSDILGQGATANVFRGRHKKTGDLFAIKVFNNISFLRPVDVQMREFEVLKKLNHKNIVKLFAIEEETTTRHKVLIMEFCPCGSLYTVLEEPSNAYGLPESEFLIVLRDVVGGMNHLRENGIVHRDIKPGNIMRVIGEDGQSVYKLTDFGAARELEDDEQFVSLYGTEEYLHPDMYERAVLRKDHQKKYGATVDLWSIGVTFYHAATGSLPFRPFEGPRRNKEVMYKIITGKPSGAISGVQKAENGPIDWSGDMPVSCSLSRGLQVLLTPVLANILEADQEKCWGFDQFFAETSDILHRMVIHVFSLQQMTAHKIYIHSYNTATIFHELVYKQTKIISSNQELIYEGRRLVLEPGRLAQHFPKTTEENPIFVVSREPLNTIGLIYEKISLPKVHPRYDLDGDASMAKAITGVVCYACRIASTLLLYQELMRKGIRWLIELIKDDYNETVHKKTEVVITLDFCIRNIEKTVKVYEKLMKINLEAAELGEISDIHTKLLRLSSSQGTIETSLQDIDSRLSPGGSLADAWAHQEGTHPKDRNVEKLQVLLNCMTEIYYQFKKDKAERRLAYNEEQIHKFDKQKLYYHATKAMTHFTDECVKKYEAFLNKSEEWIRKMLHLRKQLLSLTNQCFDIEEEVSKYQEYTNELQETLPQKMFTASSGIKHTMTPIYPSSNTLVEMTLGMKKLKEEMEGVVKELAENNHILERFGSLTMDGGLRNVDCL

[8] = target: T3, Calcium/calmodulin-dependent protein kinase type IV (Homo sapiens, UniProt Q16566)
T3 sequence (Q16566 whole entry): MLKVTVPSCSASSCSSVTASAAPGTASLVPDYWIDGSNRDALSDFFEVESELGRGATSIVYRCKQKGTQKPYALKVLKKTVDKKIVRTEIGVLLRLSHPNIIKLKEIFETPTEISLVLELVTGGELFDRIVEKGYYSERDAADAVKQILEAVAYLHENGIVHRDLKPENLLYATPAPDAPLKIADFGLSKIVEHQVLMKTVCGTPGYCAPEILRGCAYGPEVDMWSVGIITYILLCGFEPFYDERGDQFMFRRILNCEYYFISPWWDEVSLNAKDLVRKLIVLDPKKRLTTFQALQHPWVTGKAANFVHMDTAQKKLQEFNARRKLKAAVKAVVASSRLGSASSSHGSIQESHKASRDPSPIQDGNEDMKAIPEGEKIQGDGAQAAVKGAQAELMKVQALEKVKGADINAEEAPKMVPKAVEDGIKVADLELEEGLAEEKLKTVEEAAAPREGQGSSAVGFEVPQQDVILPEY

[9] = target: DNA topoisomerase 2-alpha (Homo sapiens, UniProt P11388)
Sequence of DNA topoisomerase 2-alpha (P11388 whole entry): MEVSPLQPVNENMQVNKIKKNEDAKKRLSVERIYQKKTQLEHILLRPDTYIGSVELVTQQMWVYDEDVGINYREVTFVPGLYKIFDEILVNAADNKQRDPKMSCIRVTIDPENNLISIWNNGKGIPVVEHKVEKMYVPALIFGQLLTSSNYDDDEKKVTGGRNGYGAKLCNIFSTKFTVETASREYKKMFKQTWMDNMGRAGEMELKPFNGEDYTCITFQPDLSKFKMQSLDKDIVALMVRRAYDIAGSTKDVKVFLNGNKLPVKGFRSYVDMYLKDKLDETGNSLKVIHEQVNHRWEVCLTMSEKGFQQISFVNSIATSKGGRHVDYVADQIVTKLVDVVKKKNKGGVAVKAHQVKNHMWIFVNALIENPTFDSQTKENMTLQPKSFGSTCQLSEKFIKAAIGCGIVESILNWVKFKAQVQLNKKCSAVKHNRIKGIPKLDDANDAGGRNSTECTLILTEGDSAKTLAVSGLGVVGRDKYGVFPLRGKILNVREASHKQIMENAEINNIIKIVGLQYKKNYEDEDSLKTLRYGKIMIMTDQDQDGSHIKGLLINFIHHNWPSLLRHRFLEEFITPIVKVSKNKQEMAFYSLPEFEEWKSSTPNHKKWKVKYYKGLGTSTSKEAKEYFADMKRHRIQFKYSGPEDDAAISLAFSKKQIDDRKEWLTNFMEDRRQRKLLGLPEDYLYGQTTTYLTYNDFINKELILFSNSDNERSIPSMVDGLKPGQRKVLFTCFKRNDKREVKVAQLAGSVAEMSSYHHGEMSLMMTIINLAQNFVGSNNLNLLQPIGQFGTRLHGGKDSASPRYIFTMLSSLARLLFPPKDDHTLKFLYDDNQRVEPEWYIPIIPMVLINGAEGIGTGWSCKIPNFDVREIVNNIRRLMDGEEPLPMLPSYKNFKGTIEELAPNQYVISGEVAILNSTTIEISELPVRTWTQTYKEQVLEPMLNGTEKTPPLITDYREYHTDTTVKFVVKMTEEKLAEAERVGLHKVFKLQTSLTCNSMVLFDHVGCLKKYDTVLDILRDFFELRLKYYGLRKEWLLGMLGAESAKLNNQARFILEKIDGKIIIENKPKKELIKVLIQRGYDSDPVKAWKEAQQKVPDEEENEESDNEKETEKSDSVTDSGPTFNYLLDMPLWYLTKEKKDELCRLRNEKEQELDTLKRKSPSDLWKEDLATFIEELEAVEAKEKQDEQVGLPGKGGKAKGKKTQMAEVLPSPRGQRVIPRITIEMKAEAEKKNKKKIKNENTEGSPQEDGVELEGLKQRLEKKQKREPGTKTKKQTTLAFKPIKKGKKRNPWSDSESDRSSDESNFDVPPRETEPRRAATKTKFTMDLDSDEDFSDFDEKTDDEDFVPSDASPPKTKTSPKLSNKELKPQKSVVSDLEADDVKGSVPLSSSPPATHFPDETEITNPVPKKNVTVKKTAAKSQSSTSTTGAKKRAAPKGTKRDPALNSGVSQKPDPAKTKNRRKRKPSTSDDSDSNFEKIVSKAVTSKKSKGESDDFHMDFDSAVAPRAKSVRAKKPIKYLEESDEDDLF
Also: in the data inactive means no Kd found up to 30 µM.

Sequence of High affinity nerve growth factor receptor (P04629 whole entry): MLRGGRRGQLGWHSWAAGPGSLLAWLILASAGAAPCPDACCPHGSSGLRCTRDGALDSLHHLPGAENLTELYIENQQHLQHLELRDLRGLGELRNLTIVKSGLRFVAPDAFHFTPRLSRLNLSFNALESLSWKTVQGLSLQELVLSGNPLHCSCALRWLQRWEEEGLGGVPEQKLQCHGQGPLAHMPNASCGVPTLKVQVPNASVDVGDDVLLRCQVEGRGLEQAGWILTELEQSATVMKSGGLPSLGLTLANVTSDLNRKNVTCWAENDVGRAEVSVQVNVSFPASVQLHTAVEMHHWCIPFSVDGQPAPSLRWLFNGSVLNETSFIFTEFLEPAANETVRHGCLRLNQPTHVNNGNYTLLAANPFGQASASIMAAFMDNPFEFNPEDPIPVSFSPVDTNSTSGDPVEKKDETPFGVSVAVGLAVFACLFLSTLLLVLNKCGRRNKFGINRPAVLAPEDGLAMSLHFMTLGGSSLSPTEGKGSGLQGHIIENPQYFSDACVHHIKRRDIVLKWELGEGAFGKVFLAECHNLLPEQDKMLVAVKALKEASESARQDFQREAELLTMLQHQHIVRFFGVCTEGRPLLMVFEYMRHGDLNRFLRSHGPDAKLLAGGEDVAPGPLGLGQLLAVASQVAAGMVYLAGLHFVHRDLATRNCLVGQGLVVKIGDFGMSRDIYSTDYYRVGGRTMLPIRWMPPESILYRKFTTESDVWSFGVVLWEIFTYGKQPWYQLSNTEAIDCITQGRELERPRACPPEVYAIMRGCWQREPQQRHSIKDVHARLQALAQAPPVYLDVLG

SMILES | Kd [1] | Kd [2] | Kd [3] | Kd [4] | Kd [5] | Kd [6] | Kd [7] | Kd [8] | Kd [9]
Cn1cc(-c2cnc3ccc4ccc(CS(=O)(=O)NCc5ccccn5)cc4c(=O)c3c2)cn1 [MK-8033] | > 30 µM (inactive) | > 30 µM (inactive) | > 30 µM (inactive) | > 30 µM (inactive) | > 30 µM (inactive) | > 30 µM (inactive) | > 30 µM (inactive) | > 30 µM (inactive) | –
Cn1cc(C2=C(c3cn(C4CCN(Cc5ccccn5)CC4)c4ccccc34)C(=O)NC2=O)c2ccccc21 [ENZASTAURIN] | – | > 30 µM (inactive) | – | – | > 30 µM (inactive) | – | – | – | –
CN1C/C=C/CCOc2cccc(c2)-c2ccnc(n2)Nc2cccc(c2)C1 [ZOTIRACICLIB] | – | > 30 µM (inactive) | > 30 µM (inactive) | 4.32 µM (active) | > 30 µM (inactive) | > 30 µM (inactive) | > 30 µM (inactive) | > 30 µM (inactive) | > 30 µM (inactive)
CC(=O)c1cnc2ccc(-c3cc(Cl)c(O)c(Cl)c3)nc2c1N[C@H]1CC[C@H](CN(C)C)CC1 | > 30 µM (inactive) | > 30 µM (inactive) | – | 0.233 µM (active) | > 30 µM (inactive) | > 30 µM (inactive) | – | > 30 µM (inactive) | > 30 µM (inactive)
CC(C)(C)c1nc(-c2cccc(NS(=O)(=O)c3c(F)cccc3F)c2F)c(-c2ccnc(N)n2)s1 [DABRAFENIB] | – | 0.116 µM | – | > 30 µM (inactive) | > 30 µM (inactive) | 1.28 µM | > 30 µM (inactive) | – | > 30 µM (inactive)
CCNC(=O)C#Cc1ccc2c(c1)NC(=O)/C2=C(\Nc1ccc(CN(C)C)cc1)c1ccccc1 | – | > 30 µM (inactive) | – | > 30 µM (inactive) | > 30 µM (inactive) | 0.094 µM (active) | 0.759 µM (active) | > 30 µM (inactive) | > 30 µM (inactive)
COc1cc(Nc2ncc3c(n2)-c2ccc(Cl)cc2C(c2c(F)cccc2OC)=NC3)ccc1C(=O)O [ALISERTIB] | – | > 30 µM (inactive) | – | > 30 µM (inactive) | > 30 µM (inactive) | > 30 µM (inactive) | – | > 30 µM (inactive) | > 30 µM (inactive)
CCS(=O)(=O)c1cccc(-c2cc(C(=O)NC3CCN(C)CC3)c(C)c3[nH]c4ncc(C)cc4c23)c1 [TAK-901] | 0.843 µM (active) | > 30 µM (inactive) | > 30 µM (inactive) | > 30 µM (inactive) | > 30 µM (inactive) | 0.022 µM (active) | 2.76 µM (active) | > 30 µM (inactive) | –
N#CC[C@H](C1CCCC1)n1cc(-c2ncnc3[nH]ccc23)cn1 [RUXOLITINIB] | – | > 30 µM (inactive) | – | > 30 µM (inactive) | > 30 µM (inactive) | – | – | – | –
Cc1nc(NC(=O)N2CCC[C@H]2C(N)=O)sc1-c1ccnc(C(C)(C)C(F)(F)F)c1 [ALPELISIB] | – | > 30 µM (inactive) | > 30 µM (inactive) | > 30 µM (inactive) | > 30 µM (inactive) | > 30 µM (inactive) | > 30 µM (inactive) | – | > 30 µM (inactive)
CNC(=O)c1nn(C)c2c1C(C)(C)Cc1cnc(Nc3ccc(N4CCN(C)CC4)cc3)nc1-2 [MILCICLIB] | 2.96 µM (active) | > 30 µM (inactive) | > 30 µM (inactive) | > 30 µM (inactive) | > 30 µM (inactive) | 3.79 µM (active) | 2.09 µM (active) | > 30 µM (inactive) | –
Cn1ncc(Cl)c1-c1cc(C(=O)N[C@H](CN)Cc2ccc(F)c(F)c2)oc1Cl [UPROSERTIB] | > 30 µM (inactive) | > 30 µM (inactive) | – | – | > 30 µM (inactive) | > 30 µM (inactive) | > 30 µM (inactive) | – | > 30 µM (inactive)
CC(=O)NCC(=O)N1[C@@H]2CC[C@H]1c1ccc(Nc3ncc(C(F)(F)F)c(NC4CCC4)n3)cc12 [PF-03814735] | – | > 30 µM (inactive) | – | > 30 µM (inactive) | > 30 µM (inactive) | > 30 µM (inactive) | – | > 30 µM (inactive) | –
C[C@H]1CNCCCN1S(=O)(=O)c1cccc2cncc(F)c12 | > 30 µM (inactive) | > 30 µM (inactive) | – | > 30 µM (inactive) | – | > 30 µM (inactive) | > 30 µM (inactive) | > 30 µM (inactive) | –
C[C@@H](Oc1cc(C(=O)Nc2ccc(C(=O)N3CCN(C)CC3)cc2)nnc1N)c1c(Cl)ccc(F)c1Cl | > 30 µM (inactive) | > 30 µM (inactive) | – | > 30 µM (inactive) | > 30 µM (inactive) | > 30 µM (inactive) | > 30 µM (inactive) | > 30 µM (inactive) | > 30 µM (inactive)
Cc1[nH]c(/C=C2\C(=O)Nc3ccccc32)c(C)c1CCC(=O)O [ORANTINIB] | – | > 30 µM (inactive) | – | > 30 µM (inactive) | > 30 µM (inactive) | > 30 µM (inactive) | 1.98 µM (active) | > 30 µM (inactive) | > 30 µM (inactive)
COCc1c(-c2ccc(NC(=O)Nc3cc(C(F)(F)F)ccc3F)c(F)c2)c2c(N)ncnn2c1CN1CCOCC1 | > 30 µM (inactive) | > 30 µM (inactive) | – | > 30 µM (inactive) | > 30 µM (inactive) | > 30 µM (inactive) | > 30 µM (inactive) | > 30 µM (inactive) | > 30 µM (inactive)
CNC(=O)c1ccccc1Sc1ccc2c(/C=C/c3ccccn3)n[nH]c2c1 [AXITINIB] | – | > 30 µM (inactive) | – | > 30 µM (inactive) | > 30 µM (inactive) | – | – | – | > 30 µM (inactive)
C[C@@H](Oc1cc(-n2cnc3ccc(CN4CCN(C)CC4)cc32)sc1C(N)=O)c1ccccc1C(F)(F)F [GSK-461364] | – | > 30 µM (inactive) | – | > 30 µM (inactive) | > 30 µM (inactive) | – | – | – | > 30 µM (inactive)
CNC(=O)c1cc(Oc2ccc(NC(=O)Nc3cc(C(C)(C)C)nn3-c3ccc4ncccc4c3)c(F)c2)ccn1 [REBASTINIB] | – | > 30 µM (inactive) | > 30 µM (inactive) | > 30 µM (inactive) | > 30 µM (inactive) | – | > 30 µM (inactive) | > 30 µM (inactive) | > 30 µM (inactive)
NC(=O)Nc1cc(-c2cccc(F)c2)sc1C(=O)N[C@H]1CCCNC1 [AZD-7762] | – | > 30 µM (inactive) | > 30 µM (inactive) | > 30 µM (inactive) | > 30 µM (inactive) | – | > 30 µM (inactive) | > 30 µM (inactive) | > 30 µM (inactive)
O=C(NOCCO)c1cc(CN2OCCCC2=O)c(F)c(F)c1Nc1ccc(I)cc1F [RO-4987655] | – | > 30 µM (inactive) | – | > 30 µM (inactive) | > 30 µM (inactive) | – | – | – | > 30 µM (inactive)
NC(=O)c1c(OCc2c(F)cc(Br)cc2F)nsc1NC(=O)NCCCCN1CCCC1 [OSI-632] | – | > 30 µM (inactive) | – | > 30 µM (inactive) | > 30 µM (inactive) | 0.881 µM (active) | – | > 30 µM (inactive) | > 30 µM (inactive)
CCn1c(C(=O)N(C2CC2)C2CC2)cc2c3c(ncn3C)c(Nc3cc(C)n(C)n3)nc21 [BMS-911543] | – | > 30 µM (inactive) | > 30 µM (inactive) | > 30 µM (inactive) | > 30 µM (inactive) | > 30 µM (inactive) | > 30 µM (inactive) | > 30 µM (inactive) | –
